Values joined by “and” are separate entries in the source; they are usually repeats but may differ in a detail not shown here. Equal values may be shown once.
Columns and labels:
human PLK4 = target: T1, human PLK4 (Homo sapiens, UniProt O00444); experiment: PLK4 inhibition assay (indirect ELISA); type: biochemical
T1 construct: amino terminal GST fusion of residues 1-391 of human PLK4; made in house; host or cells: E. coli
T1 sequence (O00444 1-391): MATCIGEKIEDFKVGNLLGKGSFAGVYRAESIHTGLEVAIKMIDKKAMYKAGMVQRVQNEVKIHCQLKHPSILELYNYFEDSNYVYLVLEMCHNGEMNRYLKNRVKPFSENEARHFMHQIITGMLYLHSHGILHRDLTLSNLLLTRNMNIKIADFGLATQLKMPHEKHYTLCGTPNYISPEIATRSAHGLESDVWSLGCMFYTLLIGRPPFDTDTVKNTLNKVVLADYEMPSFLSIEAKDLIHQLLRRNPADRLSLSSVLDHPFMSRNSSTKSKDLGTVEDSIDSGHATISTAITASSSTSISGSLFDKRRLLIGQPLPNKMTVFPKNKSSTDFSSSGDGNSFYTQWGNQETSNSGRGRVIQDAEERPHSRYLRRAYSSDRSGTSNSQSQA
Procedure: The protein was purified from clarified cell extracts after induction at 15° C. overnight using glutathione sepharose, gel permeation chromatography, and ion exchange (Resource Q). The resulting protein was dephosphorylated with lambda phosphatase (NEB cat# P0753), and resolved from the phosphatase using gluthione sepharose. The dephosphorylated GST-PLK4 was stored in aliquots at −80° C. until use.
PLK4 activity was measured using an indirect ELISA detection system. […] The colourimetric reaction was allowed to continue for 5 minutes, followed by addition of stop solution (0.5 N sulphuric acid), and quantified by detection at 450 nm with either a monochromatic or filter based plate reader (Molecular Devices M5 or Beckman DTX880, respectively).
Compounds were pre-incubated in the presence of enzyme for 15 minutes prior to addition of ATP and the activity remaining quantified using the above described activity assay. […] The IC50 value was determined using a non-linear 4 point logistic curve fit (XLfit4, IDBS) with the formula; (A+(B/(1+((x/C)^D)))), where A=background value, B=range, C=inflection point, D=curve fit parameter.

[1] = system: HCT116 p53 negative cells
Procedure: (§1) Breast cancer cells were seeded at various concentrations, ranging from 1×10^5 to 2.5×10^5 per well according to cell growth rate, into 6-well plates 24 hours before siRNA and/or compound treatment. Each 10 mM stock solution in 100% DMSO of the compounds was diluted with Opti-MEM I Reduced-Serum Medium (Invitrogen, Canada) and added to the cells to the stated final concentrations. Control cells received 0.001% DMSO alone. Where indicated, 40 nM PTEN siRNAs (siPTEN) (QIAGEN, Canada; sense sequence: 5′-[…]-3′) or 40 nM control siRNA (siCTRL) (QIAGEN, Canada) were transfected into cells using Lipofectamine 2000 according to the manufacturer's protocol (Invitrogen, Canada). Prior to analysis, cells were trypsinized, washed in 1× phosphate-buffered saline (PBS) and centrifuged. […] All samples were read in a FACSCalibur flow cytometer (Becton, Dickinson and Company), and data analyzed using FloJo software (Tree Star, Inc.).
(§2) To explore if PTEN status may be a contributing factor in determining if PLK4 inhibitor treatment induces a cell death response in cancer cells, a test of whether reducing the levels of endogenous PTEN would sensitize HCT116 cells (either p53 wild-type or negative) to PLK4 compound-induced death (FIG. 7) was performed. […] After two days of inhibitor treatment, the percentage of sub-G1 cells was measured by cell cycle analysis.

[2] = system: HCT116 p53 wild-type cells
Procedure: as §1, §2

[3] = system: MDA-MB-468 basal breast cancer cell line; experiment: Cell growth inhibition, Sulforhodamine B (SRB) assay; type: cell-based; conditions: Homo sapiens, MDA-MB-468, 120 h, read-out: Cell Line GI50 Range MDA-MB-468
Procedure: Breast cancer and normal cells were seeded at various concentrations, ranging from 1500 to 4000 per 80 μl according to cell growth rate, into 96-well plates 24 hours before compound overlay. Each 10 mM stock solution in 100% DMSO of the compounds was diluted with Opti-MEM I Reduced-Serum Medium (Invitrogen, Canada) to make concentration ranges from 50 nM to 250 μM. 20 μl from each concentration was added to the cells to make the final concentration range from 10 nM to 50 μM. The cells were cultured at 37° C. for 5 days before the Sulforhodamine B (SRB) assay was performed to assess cell survival. SRB is a water-soluble dye that binds to the basic amino acids of cellular proteins. Thus, colorimetric measurement of the bound dye provides an estimate of the total protein mass and is related to cell number. The cells were fixed in situ by gently aspirating off the culture media and adding 50 μl ice-cold 10% Tri-chloroacetic Acid (TCA) per well and incubation at 4° C. for 30-60 min. The plates were washed with tap water five times and allowed to air dry for 5 min. 50 μl of 0.4% (w/v) SRB solution in 1% (v/v) acetic acid was added per well and incubated for 30 mM at RT for staining. Following staining, plates were washed four times with 1% acetic acid to remove any unbound dye and then allowed to air dry for 5 min. The stain was solubilized with 100 μl of 10 mM Tris pH 10.5 per well. Absorbances were read at 570 nm. The cell survival percentage at each compound concentration was calculated over the cell DMSO control, which was growing in the presence of 0.1% DMSO (0.5% in the case of 50 μM compounds). Cell viability GI50 values were calculated using GraphPad PRISM software (GraphPad Software, Inc.).

KDR (VEGFR2) = KDR (VEGFR2) (Homo sapiens, UniProt P35968); experiment: Kinase selectivity assay (CEREP, HTRF); type: biochemical; conditions: read-out: % Inhibition at 10 μM Concentration
Procedure: (§3) The inhibitory activity of selected compounds was evaluated against a panel of 45 different kinase enzymes by CEREP, France. The assays were performed using standard HTRF assay methods as documented by CEREP against the human orthologues of Abl kinase, Akt1/PKBa, AMPKa, BMX kinase (Etk), Brk, CaMK2a, CaMK4, CDC2/CDK1 (cycB), CHK1, CHK2, c-Met kinase, CSK, EphB4 kinase, ERK1, ERK2 (P42mapk), FGFR2 kinase, FGFR4 kinase, FLT-1 kinase (VEGFR1), FLT-3 kinase, Fyn kinase, IGF1R kinase, IRK (InsR), JNK 2, KDR kinase (VEGFR2), Lck kinase, Lyn kinase, MAPKAPK2, MEK1/MAP2K1, p38a kinase, p38d kinase, p38g kinase, PDGFRb kinase, PDK1, PKA, PKCa, PKCb1, PKCb2, PKCg, Ret kinase, ROCK2, RSK2, Src kinase, Syk, and TRKA. The % Inhibition was determined by the formula; % Inhibition=100×(1−(experimental value−background value)/(high activity control−background value)).

FGFR2 = FGFR2 (Homo sapiens, UniProt P21802); experiment: Kinase selectivity assay (CEREP, HTRF); type: biochemical; conditions: read-out: % Inhibition at 10 μM Concentration
Procedure: as §3

AMPKalpha = experiment: Kinase selectivity assay (CEREP, HTRF); type: biochemical, human
Procedure: as §3

KDR (VEGFR2), sequence (P35968 20-1356): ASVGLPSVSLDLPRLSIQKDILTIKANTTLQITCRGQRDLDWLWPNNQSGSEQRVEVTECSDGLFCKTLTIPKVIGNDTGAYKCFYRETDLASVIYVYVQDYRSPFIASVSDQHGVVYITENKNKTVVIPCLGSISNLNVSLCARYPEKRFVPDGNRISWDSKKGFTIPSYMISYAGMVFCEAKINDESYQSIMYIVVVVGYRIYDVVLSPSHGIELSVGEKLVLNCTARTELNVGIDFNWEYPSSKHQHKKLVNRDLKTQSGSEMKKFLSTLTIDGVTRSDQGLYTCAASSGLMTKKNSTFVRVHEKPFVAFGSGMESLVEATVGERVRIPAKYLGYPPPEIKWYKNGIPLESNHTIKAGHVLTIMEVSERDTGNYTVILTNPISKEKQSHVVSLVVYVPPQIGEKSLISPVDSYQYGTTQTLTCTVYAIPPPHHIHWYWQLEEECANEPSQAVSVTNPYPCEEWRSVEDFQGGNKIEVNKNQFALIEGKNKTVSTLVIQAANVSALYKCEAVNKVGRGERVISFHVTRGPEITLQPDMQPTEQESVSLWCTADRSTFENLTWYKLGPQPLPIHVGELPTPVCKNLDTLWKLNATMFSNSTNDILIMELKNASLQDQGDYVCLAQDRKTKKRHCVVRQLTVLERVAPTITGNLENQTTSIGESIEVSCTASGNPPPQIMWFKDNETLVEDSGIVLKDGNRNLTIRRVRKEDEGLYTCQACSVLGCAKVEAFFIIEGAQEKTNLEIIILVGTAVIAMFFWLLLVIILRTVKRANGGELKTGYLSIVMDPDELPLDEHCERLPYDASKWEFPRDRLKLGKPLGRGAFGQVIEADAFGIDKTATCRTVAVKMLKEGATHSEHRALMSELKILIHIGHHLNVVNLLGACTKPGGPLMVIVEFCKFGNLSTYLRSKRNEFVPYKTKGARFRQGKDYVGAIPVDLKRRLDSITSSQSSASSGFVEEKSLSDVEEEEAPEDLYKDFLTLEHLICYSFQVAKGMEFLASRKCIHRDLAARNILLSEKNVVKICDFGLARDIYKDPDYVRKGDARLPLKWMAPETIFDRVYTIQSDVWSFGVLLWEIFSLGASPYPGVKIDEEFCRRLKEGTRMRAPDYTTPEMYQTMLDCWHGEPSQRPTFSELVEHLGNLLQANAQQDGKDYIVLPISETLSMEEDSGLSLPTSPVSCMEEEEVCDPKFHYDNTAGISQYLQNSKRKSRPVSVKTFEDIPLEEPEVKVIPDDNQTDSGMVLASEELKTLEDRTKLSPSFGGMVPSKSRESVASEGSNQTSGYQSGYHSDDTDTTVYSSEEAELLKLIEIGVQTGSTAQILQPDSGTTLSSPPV
FGFR2, sequence (P21802 22-821): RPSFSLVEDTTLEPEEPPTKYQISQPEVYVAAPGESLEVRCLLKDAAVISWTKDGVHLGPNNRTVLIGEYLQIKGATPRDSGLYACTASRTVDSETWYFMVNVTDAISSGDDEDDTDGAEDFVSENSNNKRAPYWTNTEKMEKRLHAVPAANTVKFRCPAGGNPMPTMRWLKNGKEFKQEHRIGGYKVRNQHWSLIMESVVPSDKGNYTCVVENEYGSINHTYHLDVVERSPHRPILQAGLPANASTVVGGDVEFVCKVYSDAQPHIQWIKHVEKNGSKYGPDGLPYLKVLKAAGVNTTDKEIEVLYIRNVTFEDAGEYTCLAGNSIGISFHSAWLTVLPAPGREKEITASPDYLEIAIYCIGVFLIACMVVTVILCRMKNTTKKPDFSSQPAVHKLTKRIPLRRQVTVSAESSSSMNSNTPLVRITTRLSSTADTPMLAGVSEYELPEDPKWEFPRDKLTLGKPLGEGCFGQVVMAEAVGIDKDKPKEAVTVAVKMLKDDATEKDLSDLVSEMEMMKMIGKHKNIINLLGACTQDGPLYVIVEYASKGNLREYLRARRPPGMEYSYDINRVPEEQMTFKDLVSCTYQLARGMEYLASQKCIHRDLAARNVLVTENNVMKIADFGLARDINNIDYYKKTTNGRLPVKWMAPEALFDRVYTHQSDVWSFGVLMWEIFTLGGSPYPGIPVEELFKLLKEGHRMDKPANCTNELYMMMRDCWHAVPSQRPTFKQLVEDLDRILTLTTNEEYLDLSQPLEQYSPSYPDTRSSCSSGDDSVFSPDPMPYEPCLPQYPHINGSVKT

| Compound | IC50 (human PLK4) [µM] | percentage of sub-G1 cells [1] | percentage of sub-G1 cells [2] | GI50 [3] [µM] | inhibition at 10 µM (KDR (VEGFR2)) [%] | inhibition at 10 µM (FGFR2) [%] | % Inhibition at 10 μM Concentration (AMPKalpha) [%] |
| --- | --- | --- | --- | --- | --- | --- | --- |
| COc1ccc2c(c1)[C@@]1(C[C@@H]1c1ccc3c(-c4ccc(N5CCN(C)CC5)nc4)n[nH]c3c1)C(=O)N2 (racemic) [Compound 2] | < 5 | 5.4% and 10.3% | 7.1% and 15.9% | < 5 | – | – | – |
| COc1ccc2c(c1)/C(=C\c1ccc3c(/C=C/c4ccc(N5CCN(C)CC5)nc4)n[nH]c3c1)C(=O)N2 [Compound 3] | – | – | – | – | 32 | 4 | – |
| CN(C)Cc1ccc(/C=C/c2n[nH]c3cc([C@H]4C[C@@]45C(=O)Nc4ccccc45)ccc23)cc1 (racemic) [Compound 35] | – | – | – | < 5 | – | – | 69 |

— patent US8933070B2, “Methods of targeting PTEN mutant diseases and compositions therefor” (University Health Network, priority 2010, dated 2015)
